# Test results published in patent publication US20080026996A1, “Selective Vpac2 Receptor Reptide Agonists” (ELI LILLY AND COMPANY, priority 2004, published 2008).
# Where two headings read alike, the source gives them in different places. Where a SMILES comes first, the peptide text is derived from it. Where no end group is shown, it is not given here. [ ]: non-standard residue; d: D form. The star is where a group is joined. Hexanoyl = CCCCCC(=O)*; Aib = CC(C)(N)C(=O)O
# Tests used:
# human VPAC2 [1] = molecular target: T1, human VPAC2 (Homo sapiens, UniProt P41587); experiment: Alpha screen cAMP in vitro potency, human VPAC2 receptor; format: cell-based
# T1 construct: expressed in transfected cells
# T1 sequence (P41587 24-438): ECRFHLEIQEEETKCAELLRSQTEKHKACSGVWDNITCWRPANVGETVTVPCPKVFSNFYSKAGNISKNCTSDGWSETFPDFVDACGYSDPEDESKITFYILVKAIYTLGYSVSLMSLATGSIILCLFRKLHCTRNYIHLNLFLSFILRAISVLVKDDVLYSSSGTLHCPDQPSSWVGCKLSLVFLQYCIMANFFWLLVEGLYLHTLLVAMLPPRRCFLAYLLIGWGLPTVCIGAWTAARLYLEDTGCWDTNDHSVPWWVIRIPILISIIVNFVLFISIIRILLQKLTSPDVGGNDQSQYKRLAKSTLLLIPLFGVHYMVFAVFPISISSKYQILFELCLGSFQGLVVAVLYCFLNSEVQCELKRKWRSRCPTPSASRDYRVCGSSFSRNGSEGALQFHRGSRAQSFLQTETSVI
# Method: Alpha screen: Cells are washed in the culture flask once with PBS. Then, the cells are rinsed with enzyme free dissociation buffer. The dissociated cells are removed. The cells are then spun down and washed in stimulation buffer. For each data point, 50,000 cells suspended in stimulation buffer are used. To this buffer, Alpha screen acceptor beads are added along with the stimuli. This mixture is incubated for 60 minutes. Lysis buffer and Alpha screen donor beads are added and are incubated for 60 to 120 minutes. The Alpha screen signal (indicative of intracellular cAMP levels) is read in a suitable instrument (e.g. AlphaQuest from Perkin-Elmer). Steps including Alpha screen donor and acceptor beads are performed in reduced light.
# human VPAC2 [2] = molecular target: T1, human VPAC2; experiment: Filter binding assay, membranes of stable VPAC2 cell line, 125I-labeled VIP tracer (Table 2)
# Method: (§1) For this assay, the solutions and equipment include:
# (§2) Presoak solution: 0.5% Polyethyleneamine in Aqua dest.
# (§3) Buffer for flushing filter plates: 25 mM HEPES pH 7.4
# (§4) Blocking buffer: 25 mM HEPES pH 7.4; 0.2% protease free BSA
# (§5) Assay buffer: 25 mM HEPES pH 7.4; 0.5% protease free BSA
# (§6) Dilution and assay plate: PS-Microplate, U form
# (§7) Filtration Plate Multiscreen FB Opaque Plate; […] Type B Glasfiber filter
# (§8) In order to prepare the filter plates, aspirate the presoak solution by vacuum filtration. Flush the plates twice with 200 μL flush buffer. Add 200 μL blocking buffer to the filter plate. The filter plate is then incubated […] for 1 hour at room temperature.
# (§9) Fill the assay plate with 25 μL assay buffer, 25 μL membranes (2.5 μg) suspended in assay buffer, 25 μL compound (agonist) in assay buffer, and 25 μL tracer (about 40000 cpm) in assay buffer. Incubate the filled plate for 1 hour with shaking.
# (§10) Conduct the transfer from assay plate to filter plate. Aspirate the blocking buffer by vacuum filtration and wash two times with flush buffer. Transfer 90 μL from the assay plate to the filter plate. Aspirate the 90 μL transferred from assay plate and wash three times with 200 μL flush buffer. Remove the plastic support. Dry for 1 hour at 60° C. Add 30 μL Microscint. Perform the count.
# human VPAC1 = molecular target: T2, human VPAC1 (Homo sapiens, UniProt P32241); experiment: Filter binding assay, membranes of cells transiently transfected with human VPAC1, 125I-labeled VIP tracer (Table 2); design: expressed in transfected cells
# T2 sequence (P32241 31-457): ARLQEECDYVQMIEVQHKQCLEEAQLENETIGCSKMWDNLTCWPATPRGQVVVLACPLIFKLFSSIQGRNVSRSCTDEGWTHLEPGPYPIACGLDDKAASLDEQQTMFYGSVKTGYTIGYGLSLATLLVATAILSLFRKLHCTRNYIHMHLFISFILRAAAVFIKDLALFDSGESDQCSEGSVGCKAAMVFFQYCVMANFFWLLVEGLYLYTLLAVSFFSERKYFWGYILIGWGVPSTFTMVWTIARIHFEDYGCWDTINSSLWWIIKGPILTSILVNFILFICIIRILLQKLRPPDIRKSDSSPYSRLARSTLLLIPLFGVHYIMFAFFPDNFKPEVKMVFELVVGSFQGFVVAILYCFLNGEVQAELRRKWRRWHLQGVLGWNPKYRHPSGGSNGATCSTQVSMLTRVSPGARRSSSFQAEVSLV
# Method: as §1, §2, §3, §4, §5, §6, §7, §8, §9, §10
# human PAC1 = molecular target: T3, human PAC1 (Homo sapiens, UniProt P41586); experiment: Filter binding assay, membranes of cells transiently transfected with human PAC1, 125I-labeled PACAP-27 tracer (Table 2); design: expressed in transfected cells
# T3 sequence (P41586 21-468): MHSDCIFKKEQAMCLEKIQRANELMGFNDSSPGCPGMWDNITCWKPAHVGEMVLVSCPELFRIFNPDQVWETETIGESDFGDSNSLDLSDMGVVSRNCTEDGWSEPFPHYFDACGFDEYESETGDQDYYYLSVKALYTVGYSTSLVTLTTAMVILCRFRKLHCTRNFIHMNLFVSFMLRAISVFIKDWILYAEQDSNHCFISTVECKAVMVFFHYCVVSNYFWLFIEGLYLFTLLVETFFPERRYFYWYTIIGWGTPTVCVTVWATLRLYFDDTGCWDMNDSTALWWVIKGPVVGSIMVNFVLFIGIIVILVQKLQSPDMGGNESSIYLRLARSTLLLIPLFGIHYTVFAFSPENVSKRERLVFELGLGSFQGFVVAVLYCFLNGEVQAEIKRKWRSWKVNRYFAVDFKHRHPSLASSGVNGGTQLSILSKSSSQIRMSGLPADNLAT
# Method: as §1, §2, §3, §4, §5, §6, §7, §8, §9, §10
# [3] = cAMP generation, single result from two analyses performed in a single run, read-out: Human VPAC2 Receptor: Alpha Screen EC50
# [4] = read-out: Human VPAC2 Receptor Binding
# [5] = read-out: Human VPAC1 Receptor Binding
# [6] = read-out: Human PAC1 Receptor Binding
Molecule,EC50 (human VPAC2 [1]; [3]) [nM],IC50 (human VPAC2 [2]; [4]) [nM],IC50 (human VPAC1; [5]) [nM],IC50 (human PAC1; [6]) [nM],EC50 (human VPAC2 [1]) [nM],IC50 (human VPAC2 [2]) [nM],IC50 (human VPAC1) [nM],IC50 (human PAC1) [nM]
Hexanoyl-HSDAVFTDNYTRLLAKVALQKYLQSIKNKRYGGPSSGAPPPS [Agonist P196],0.23,0.85,453,> 25000,,,,
Hexanoyl-HSDAVFTDNYTRLRKQVAGKKYLQSIKNKRYGGPSSGAPPPS [Agonist P275],0.32,0.38,558,630,,,,
MHSDAVFTDNYTRLLAKLALQKYLQSIKNKRYGGPSSGAPPPS [Agonist P140],,,,,0.07,1.94,1140,485
Hexanoyl-HSDAVFTDQYTRLLAKLALQKYLQSIKQKRYGGPSSGAPPPS [Agonist P192],0.18,0.53,1430,14300,,,,
Hexanoyl-HSDAVFTDNYTRLRKQVAAKKYLQSIKNSRGGPSSGAPPPS [Agonist P122],0.14,0.17,77.6,304,,,,
Hexanoyl-HSDAVFTDNYTRLRKQVAAKKYLQ[Aib]IKNKRYGGPSSGAPPPS [Agonist P187],0.4,0.17,134,296,,,,
Hexanoyl-HSDAVFTDNYTRLRKQVAAKKYLQIIKNKRYGGPSSGAPPPS [Agonist P113],0.26,0.69,293,189,,,,
Hexanoyl-H[Aib]DAVFTDNYTRLRKQVAAKKYLQSIKNKRYGGPSSGAPPPS [Agonist P166],0.15,0.46,248,127,,,,
Hexanoyl-HSDAVFTDNYTRLRKQVAAKKYLQSTKNKRYGGPSSGAPPPS [Agonist P108],0.27,0.45,332,486,,,,
Hexanoyl-HSDAVFTDNYTRLRKQVAAKKYLQSYKNKRYGGPSSGAPPPS [Agonist P111],0.34,0.19,300,258,,,,
Hexanoyl-H[dA]DAVFTDNYTRLRKQVAAKKYLQSIKNKRYGGPSSGAPPPS [Agonist P101],0.21,0.18,93.6,274,,,,
Hexanoyl-HSDAVFTDNYTRLRKQVAAKKYLQSVKNKRYGGPSSGAPPPS [Agonist P109],0.22,0.11,274,257,,,,
Hexanoyl-HSEAVFTDNYTRLRKQVAAKKYLQSIKNKRYGGPSSGAPPPS [Agonist P224],0.14,0.35,208,210,,,,
CCCCCC(=O)N[C@@H](Cc1c[nH]cn1)C(=O)N[C@@H](CO)C(=O)N[C@@H](CC(=O)O)C(=O)N[C@@H](C)C(=O)N[C@H](C(=O)N[C@@H](Cc1ccccc1)C(=O)N[C@H](C(=O)N[C@@H](CC(=O)O)C(=O)N[C@@H](CC(N)=O)C(=O)N[C@@H](Cc1ccc(O)cc1)C(=O)N[C@H](C(=O)N[C@@H](CCCNC(=N)N)C(=O)N[C@@H](CC(C)C)C(=O)N[C@@H](CCCNC(=N)N)C(=O)N[C@@H](CCCCN)C(=O)N[C@@H](CCC(N)=O)C(=O)N[C@H](C(=O)N[C@@H](C)C(=O)N[C@@H](C)C(=O)N[C@@H](CCC(N)=O)C(=O)N[C@@H](CCCCN)C(=O)N[C@@H](Cc1ccc(O)cc1)C(=O)N[C@@H](CC(C)C)C(=O)N[C@@H](CC(N)=O)C(=O)N[C@@H](CCC(N)=O)C(=O)N[C@@H](CC(C)C)C(=O)N[C@@H](CCCCN)C(=O)N[C@@H](CCCCN)C(=O)NCC(=O)NCC(=O)N1CCC[C@H]1C(=O)N[C@@H](CO)C(=O)N[C@@H](CO)C(=O)NCC(=O)N[C@@H](C)C(=O)N1CCC[C@H]1C(=O)N1CCC[C@H]1C(=O)N1CCC[C@H]1C(=O)N[C@@H](CO)C(=O)O)C(C)C)[C@@H](C)O)[C@@H](C)O)C(C)C [Agonist P144] (Hexanoyl-HSDAVFTDNYTRLRKQVAAQKYLNQLKKGGPSSGAPPPS-OH; C-terminus assumed),0.32,0.57,4.43,1180,,,,
Hexanoyl-HSDAVFTDNYTRLRKQVAAKKYLQFIKNKRYGGPSSGAPPPS [Agonist P112],0.16,0.49,193,164,,,,
Hexanoyl-HSDAVFTDNYTKLKKQVAAKKYLQSIKNKKYGGPSSGAPPPS [Agonist P103],0.12,0.08,228,333,,,,
CC[C@H](C)[C@H](NC(=O)[C@H](CO)NC(=O)[C@H](CCC(N)=O)NC(=O)[C@H](CC(C)C)NC(=O)[C@H](Cc1ccc(O)cc1)NC(=O)[C@H](CCCCN)NC(=O)[C@H](CCCCN)NC(=O)[C@H](C)NC(=O)[C@H](C)NC(=O)[C@@H](NC(=O)[C@H](CCC(N)=O)NC(=O)[C@H](CCCCN)NC(=O)[C@H](CCCNC(=N)N)NC(=O)[C@H](CC(C)C)NC(=O)[C@H](CCCNC(=N)N)NC(=O)[C@@H](NC(=O)[C@H](Cc1ccc(O)cc1)NC(=O)[C@H](CCC(N)=O)NC(=O)[C@H](CC(=O)O)NC(=O)[C@@H](NC(=O)[C@H](Cc1ccccc1)NC(=O)[C@@H](NC(=O)[C@H](C)NC(=O)[C@H](CC(=O)O)NC(=O)[C@H](CO)NC(=O)[C@H](Cc1c[nH]cn1)NC(=O)[C@@H](N)CCSC)C(C)C)[C@@H](C)O)[C@@H](C)O)C(C)C)C(=O)N[C@@H](CCCCN)C(=O)N[C@@H](CCC(N)=O)C(=O)N[C@@H](CCCCN)C(=O)N[C@@H](CCCNC(=N)N)C(=O)N[C@@H](Cc1ccc(O)cc1)C(=O)NCC(=O)NCC(=O)N1CCC[C@H]1C(=O)N[C@@H](CO)C(=O)N[C@@H](CO)C(=O)NCC(=O)N[C@@H](C)C(=O)N1CCC[C@H]1C(=O)N1CCC[C@H]1C(=O)N1CCC[C@H]1C(=O)N[C@@H](CO)C(=O)O [Agonist P100],0.28,0.4,321,187,,,,
Hexanoyl-HSDAVFTDNYTRLLAQLALQKYLQSIKNKRYGGPSSGAPPPS [Agonist P195],0.25,2.34,> 3000,139,,,,
Hexanoyl-HSDAVFTDNYTRLRKQVAAKKYLQQIKNKRYGGPSSGAPPPS [Agonist P124],0.09,0.2,211,264,,,,
